Experimental data as given in US11155558B2, “Dual mode of action soluble guanylate cyclase activators and phosphodiesterase inhibitors and uses thereof” (TOPADUR PHARMA AG, priority 2017, dated 2021).

The molecules below were run against recombinant human (rh) PDE5A (Homo sapiens (Human), UniProt O76074) (assay: Phosphodiesterase-5 activity assay (Example 110), radiometric SPA). Conditions: not given.
Assay type: biochemical
Procedure: The inhibition of recombinant human (rh) PDE5A by test compounds is measured in a radiometric assay based on Scintillation Proximity Assay (SPA) technology. The substrate [3H]cGMP/cGMP is hydrolysed to [3H] 5′ GMP/5′ GMP contingent on the activity of rhPDE5A. The ensuing [3H] 5′ GMP/5′ GMP but not [3H] cGMP/cGMP binds to SPA yttrium silicate beads in the presence of Zn^++ stimulating the scintillant within the bead to emit light that is detected by a ß-counter. The assay is performed in a 96 well format.
The assay is done in 20 mM Tris HCl pH 7.4, 5 mM MgCl2, […] cGMP/[3H] cGMP (about 60000 dpm/well) substrate with rhPDE5A1 (GST tagged, SIGMA E9034) added to an amount not exceeding 20% cGMP hydrolysis within 20 min in Tris 20 mM pH 7.4 supplemented with 0.01% bovine serum albumin (BSA) in the presence of test compounds or vehicle (0.1% DMSO). The final assay volume amounts to 100 μl and the reaction is run for 20 min at 37° C.
The hydrolysis of [3H] cGMP/cGMP by rhPDE5A is terminated by adding SPA beads at 50 µl/well (Perkin Elmer, RPNQ0024), pre-diluted in water as per manufacturer's instructions and supplemented with 3-isobutyl-1-methylxanthine (1 mM). Beads are allowed to sediment for at least 30 min before measurement in a Wallac Microbeta 2 (Perkin Elmer).
In general, test compounds are added at seven different concentrations from […] in log steps. […] Results (IC50) are given as the mean from at least two independent experiments each performed in triplicate.
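Wherever % inhibition at 5.0E−09 M is given: tritiated 5′GMP counted by scintillation after SPA bead capture, enzyme reaction run 60 min at 22 °C, basal control is the mixture without enzyme.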

SMILES	IC50 [nM]
CCCOc1ccc(S(=O)(=O)N2CCC([C@H](CO[N+](=O)[O-])O[N+](=O)[O-])CC2)cc1-c1nc2c(CCC)cn(C)c2c(=O)[nH]1 [Compound 3g, (R)-1-(1-((3-(5-methyl-4-oxo-7-propyl-4,5-dihydro-3H-pyrrolo[3,2-d]pyrimidin-2-yl)-4-propoxyphenyl)sulfonyl)piperidin-4-yl)ethane-1,2-diyl dinitrate]	23
CCCOc1ccc(S(=O)(=O)N2CCN(CCO[N+](=O)[O-])CC2)cc1-c1nc2c(CCC)c(/C=N/O)n(C)c2c(=O)[nH]1 [Compound 3e, (E)-2-(4-((3-(6-((hydroxyimino)methyl)-5-methyl-4-oxo-7-propyl-4,5-dihydro-3H-pyrrolo[3,2-d]pyrimidin-2-yl)-4-propoxyphenyl)sulfonyl)piperazin-1-yl)ethyl nitrate]	12
CCCOc1ccc(S(=O)(=O)N2CCC(CCO[N+](=O)[O-])(CCO[N+](=O)[O-])CC2)cc1-c1nc2c(CCC)cn(CC)c2c(=O)[nH]1 [Compound 1n, (1-((3-(5-ethyl-4-oxo-7-propyl-4,5-dihydro-3H-pyrrolo[3,2-d]pyrimidin-2-yl)-4-propoxyphenyl)sulfonyl)piperidine-4,4-diyl)bis(ethane-2,1-diyl) dinitrate]	2.7
CCCOc1ccc(S(=O)(=O)N2C[C@@H](CCO[N+](=O)[O-])N(C)[C@@H](CCO[N+](=O)[O-])C2)cc1-c1nc2c(CCC)cn(CC)c2c(=O)[nH]1 [Compound 1m, ((2S,6R)-4-((3-(5-ethyl-4-oxo-7-propyl-4,5-dihydro-3H-pyrrolo[3,2-d]pyrimidin-2-yl)-4-propoxyphenyl)sulfonyl)-1-methylpiperazine-2,6-diyl)bis(ethane-2,1-diyl) dinitrate]	8.6
CCCOc1ccc(S(=O)(=O)N2CCC([C@@H](CO[N+](=O)[O-])O[N+](=O)[O-])CC2)cc1-c1nc2c(CCC)cn(CC)c2c(=O)[nH]1 [Compound 1l, (S)-1-(1-((3-(5-ethyl-4-oxo-7-propyl-4,5-dihydro-3H-pyrrolo[3,2-d]pyrimidin-2-yl)-4-propoxyphenyl)sulfonyl)piperidin-4-yl)ethane-1,2-diyl dinitrate]	3.2
CCCOc1ccc(S(=O)(=O)N2CCN(CCCO[N+](=O)[O-])CC2)cc1-c1nc2c(CCC)cn(C)c2c(=O)[nH]1 [Compound 3d, 3-(4-((3-(5-methyl-4-oxo-7-propyl-4,5-dihydro-3H-pyrrolo[3,2-d]pyrimidin-2-yl)-4-propoxyphenyl)sulfonyl)piperazin-1-yl)propyl nitrate]	9
CCCOc1ccc(S(=O)(=O)N2CCN(CCCO[N+](=O)[O-])CC2)cc1-c1nc2c(CCC)c(/C=N/O)n(C)c2c(=O)[nH]1 [Compound 3f, (E)-3-(4-((3-(6-((hydroxyimino)methyl)-5-methyl-4-oxo-7-propyl-4,5-dihydro-3H-pyrrolo[3,2-d]pyrimidin-2-yl)-4-propoxyphenyl)sulfonyl)piperazin-1-yl)propyl nitrate]	42
CCCOc1ccc(S(=O)(=O)N2CCC([C@@H](CO[N+](=O)[O-])O[N+](=O)[O-])CC2)cc1-c1nc2c(CCC)c(/C=N/O)n(C)c2c(=O)[nH]1 [Compound 3p, (S,E)-1-(1-((3-(6-((hydroxyimino)methyl)-5-methyl-4-oxo-7-propyl-4,5-dihydro-3H-pyrrolo[3,2-d]pyrimidin-2-yl)-4-propoxyphenyl)sulfonyl)piperidin-4-yl)ethane-1,2-diyl dinitrate]	12
CCCc1c(/C=N/O)n(C)c2c(=O)[nH]c(-c3cc(S(=O)(=O)N4CCN(CCO[N+](=O)[O-])CC4)ccc3OCC)nc12 [Compound 2g, (E)-2-(4-((4-ethoxy-3-(6-((hydroxyimino)methyl)-5-methyl-4-oxo-7-propyl-4,5-dihydro-3H-pyrrolo[3,2-d]pyrimidin-2-yl)phenyl)sulfonyl)piperazin-1-yl)ethyl nitrate]	31
CCCOc1ccc(S(=O)(=O)N2CCC([C@@H](O)CO[N+](=O)[O-])CC2)cc1-c1nc2c(CCC)cn(C)c2c(=O)[nH]1 [Compound 3l, (R)-2-hydroxy-2-(1-((3-(5-methyl-4-oxo-7-propyl-4,5-dihydro-3H-pyrrolo[3,2-d]pyrimidin-2-yl)-4-propoxyphenyl)sulfonyl)piperidin-4-yl)ethyl nitrate]	2
CCCOc1ccc(S(=O)(=O)N2CCC([C@H](CO[N+](=O)[O-])O[N+](=O)[O-])CC2)cc1-c1nc2c(CCC)cn(CC)c2c(=O)[nH]1 [Compound 1k, (R)-1-(1-((3-(5-ethyl-4-oxo-7-propyl-4,5-dihydro-3H-pyrrolo[3,2-d]pyrimidin-2-yl)-4-propoxyphenyl)sulfonyl)piperidin-4-yl)ethane-1,2-diyl dinitrate]	3.5
CCCOc1ccc(S(=O)(=O)N2C[C@H](CCO[N+](=O)[O-])N(C)[C@@H](CCO[N+](=O)[O-])C2)cc1-c1nc2c(CCC)cn(CC)c2c(=O)[nH]1 [Compound 1o, ((2S,6S)-4-((3-(5-ethyl-4-oxo-7-propyl-4,5-dihydro-3H-pyrrolo[3,2-d]pyrimidin-2-yl)-4-propoxyphenyl)sulfonyl)-1-methylpiperazine-2,6-diyl)bis(ethane-2,1-diyl) dinitrate]	7.1
CCCOc1ccc(S(=O)(=O)N2CCC(CO[N+](=O)[O-])CC2)cc1-c1nc2c(CCC)cn(C)c2c(=O)[nH]1 [Compound 3k, (1-((3-(5-methyl-4-oxo-7-propyl-4,5-dihydro-3H-pyrrolo[3,2-d]pyrimidin-2-yl)-4-propoxyphenyl)sulfonyl)piperidin-4-yl)methyl nitrate]	15
CCCOc1ccc(S(=O)(=O)N2CCC([C@H](CO[N+](=O)[O-])O[N+](=O)[O-])CC2)cc1-c1nc2c(CCC)c(/C=N/O)n(C)c2c(=O)[nH]1 [Compound 3o, (R,E)-1-(1-((3-(6-((hydroxyimino)methyl)-5-methyl-4-oxo-7-propyl-4,5-dihydro-3H-pyrrolo[3,2-d]pyrimidin-2-yl)-4-propoxyphenyl)sulfonyl)piperidin-4-yl)ethane-1,2-diyl dinitrate]	13
CCCOc1ccc(S(=O)(=O)N2CCC([C@@H](CO[N+](=O)[O-])O[N+](=O)[O-])CC2)cc1-c1nc2c(CCC)cn(C)c2c(=O)[nH]1 [Compound 3h, (S)-1-(1-((3-(5-methyl-4-oxo-7-propyl-4,5-dihydro-3H-pyrrolo[3,2-d]pyrimidin-2-yl)-4-propoxyphenyl)sulfonyl)piperidin-4-yl)ethane-1,2-diyl dinitrate]	3.7

Same assay, conditions: asterisk: assay described in Example 110, rhPDE5A1; read-out: IC50

IC50 [nM]	SMILES
3.3	CCCOc1ccc(S(=O)(=O)N2CCC([C@@H](O)CO[N+](=O)[O-])CC2)cc1-c1nc2c(CCC)c(/C=N/O)n(C)c2c(=O)[nH]1 [Compound 3q, (R,E)-2-hydroxy-2-(1-((3-(6-((hydroxyimino)methyl)-5-methyl-4-oxo-7-propyl-4,5-dihydro-3H-pyrrolo[3,2-d]pyrimidin-2-yl)-4-propoxyphenyl)sulfonyl)piperidin-4-yl)ethyl nitrate]

The molecules below were run on Human Pulmonary Artery Smooth Muscle Cells (hPASMC) (assay: Measurements of cGMP in human pulmonary artery smooth muscle cells (hPASMC)). Conditions: 30 min incubation, 0.1 pM-1 uM, compared to sildenafil, mirodenafil or compound 5 (FIG. 3).
Assay type: cell-based
Procedure: Human Pulmonary Artery Smooth Muscle Cells (hPASMC) were purchased from Clonetics™ Lonza (Lonza, reference number CC-2581) and cultured in Clonetics™ smooth muscle growth medium (Clonetics™ SmGM™-2 with BulletKit™ growth factor supplements (Lonza, reference number CC-3182) at 37° C. in 5% CO2. Culture medium was replaced each 48 hours. Cells were grown in 75 cm^2 culture plates. 48 h before the experiments, cells were trypsinized (Trypsin kit One ReagentPack™ (CC-5034), Lonza) and plated in 96 well plates precoated with collagen I at 10000 cells per well. 24 h before the experiments culture medium was replaced by serum-reduced (0.5% FBS) medium. […]
Measurements of intracellular cGMP were performed using the Amersham cGMP EIA System (GE Healthcare, RPN226) following the instructions of the manufacturer. […] Briefly, incubations were terminated by adding Amersham's lysis buffer 1 and cells left for 10 min under agitation to ensure complete lysis. cGMP in samples was then acetylated using triethylamine and acetic anhydride and determined by a competitive ELISA. The ELISA is based on the competition between acetylated cGMP in cell culture lysates and a peroxidase-labelled cGMP conjugate for limited binding sites on a cGMP specific antiserum immobilized on pre-coated 96 well MTP. cGMP was determined based on a standard curve. […]

SMILES	efficacy in increasing intracellular cGMP level
CCCOc1ccc(S(=O)(=O)N2CCN(CCO[N+](=O)[O-])CC2)cc1-c1nc2c(CCC)cn(CC)c2c(=O)[nH]1 [Compound 1i, 2-(4-((3-(5-ethyl-4-oxo-7-propyl-4,5-dihydro-3H-pyrrolo[3,2-d]pyrimidin-2-yl)-4-propoxyphenyl)sulfonyl)piperazin-1-yl)ethyl nitrate]	significantly higher efficacy in increasing cGMP level

These molecules were tested against PDE5 enzyme isolated from human platelets (Homo sapiens (Human), UniProt O76074) (assay: PDE5 assay (Example 109), formation of 5′GMP from cGMP, SPA). Conditions: not given.

SMILES	IC50 [nM]
CCCOc1ccc(S(=O)(=O)N2CCN(CCO[N+](=O)[O-])CC2)cc1-c1nc2c(CCC)cn(CC)c2c(=O)[nH]1 [Compound 1i, 2-(4-((3-(5-ethyl-4-oxo-7-propyl-4,5-dihydro-3H-pyrrolo[3,2-d]pyrimidin-2-yl)-4-propoxyphenyl)sulfonyl)piperazin-1-yl)ethyl nitrate]	2

Same assay, conditions: percent inhibition of control enzyme activity at 5.0E−09 M; assay of Example 109

SMILES	% inhibition at 5.0E−09 M [%]
CCCOc1ccc(S(=O)(=O)N2CCN(CCO[N+](=O)[O-])CC2)cc1-c1nc2c(CCC)cn(CC)c2c(=O)[nH]1 [Compound 1i, 2-(4-((3-(5-ethyl-4-oxo-7-propyl-4,5-dihydro-3H-pyrrolo[3,2-d]pyrimidin-2-yl)-4-propoxyphenyl)sulfonyl)piperazin-1-yl)ethyl nitrate]	60.0
